Source: patent publication US20120028897A1, “METHODS AND COMPOSITIONS FOR THE TREATMENT OF FLUID RETENTION DISORDERS” (priority 2008, published 2012)

Key:
[1] = Urinary excretion and isomer identity after iv infusion (T84 bioassay and LC-MS of urine); type: in vivo, rat; settings: for stability of identity and properties in vivo: infused rats; for GC-C stimulating activity recovered in urine: T84 bioassay
Procedure: FIG. 3A is a graph showing urinary excretion of “UgnA like” activity as a function of time in animals treated with the either huUgnA (filled symbols) or huUgnB (open symbols). huUgn was infused into an anesthetized rat during the period indicated by the horizontal bar. […] A sample of the urine acquired during each clearance period was evaluated for activity in the T84 cell bioassay. The resulting cyclic GMP responses were then converted to apparent recoveries of “UgnA-like” peptide by interpolation on a huUgnA standard curve (constructed as in FIG. 1A). Appropriate dilutions were chosen to ensure that the activity in each sample would not saturate this assay.
(§1) After post-surgical equilibration (−60 min) and three 20 min control clearance periods, huUgnA or B was infused into the jugular vein at 10 μl/min over a 60 min period, followed by a return to isotonic saline for the remainder of the experiment. The infused doses of huUgnA were 12, 25, 50, 100, or 200 nmol/kg BW in a total of 38 rats; huUgnB doses were 9, 18, 35, 70, and 140 nmol/kg BW in 35 rats. A UgnA mimetic, E. coli STh (ST-core), was infused into a third group of 32 rats at doses of 17, 32, 66, 133, and 266 nmol/kg. Renal excretory responses to these infusions were slow to develop and long lasting, so clearance periods were continued for 2-3 hr after the termination of the peptide infusion. This protracted time course limited protocols to one dose of one peptide in each rat. A control group of 10 rats received isotonic saline at 10 μl/min in place of the peptide infusion, but was otherwise treated in the same way as the experimental groups.
HPLC analysis and mass spectroscopy of Ugn isomers. The integrity and purity of huUgnA and B isomer preparations were confirmed by liquid chromatography/mass spectroscopy (LC-MS) analysis. The two Ugn isomers have different retention times on a reverse phase HPLC column (FIG. 1, dashed trace; huUgnA elutes ˜0.35 minutes before huUgnB). Separations were performed on a Hypersil Gold AQ 2.1×50 mm column from Thermo Fisher Scientific Inc (Waltham, Mass.) equilibrated in 98% buffer A (0.1% formic acid), 2% buffer B (85:10:5 Acetonitrile/Isopropyl Alcohol/5 mM NH4OAc pH 5.8) with a flow rate of 0.4 ml/min on an Acquity HPLC system. After a 2.5 minute wash with the same buffers, peptides were eluted with a linear gradient of 2% buffer B to 80% buffer B over 25 minutes and held for one minute before an increase to 90% B over 2 minutes to wash the column, followed by a return to 2% buffer B over 3 minutes.
Peptide masses were determined using a Micromass Q-T of II instrument equipped with an electrospray ionization (ESI) source operating in positive ion mode. The instrument was programmed to scan in the mass range of m/z 100 to 1800. Molecular weight predictions and data analysis were carried out with MassLynx version 4.0 software. […] were injected directly without any sample preparation using an Acquity HPLC system connected in line with the Q-T of II.
Bioassay of huUgnA-like activity. The concentration of huUgnA-like bioactivity in infused peptide solutions and in urine collected during experiments was measured using a T84 cell-based bioassay, as described previously. T84 cells are a colon carcinoma cell line that increases cyclic GMP production in response to GC-C receptor agonists such as Ugn, Gn and ST core peptide. T84 cells were grown to near confluence in 12 well culture clusters, and then incubated with unknowns or standard concentrations of huUgnA. Standards or urine samples were diluted into bioassay medium (1 mM 3-isobutyl-1-methylxanthine, 0.03 mM phenol red, 137 mM NaCl, 5.4 mM KCl, 0.25 mM Na2HPO4, 0.44 mM KH2PO4, 1.3 mM CaCl2, 1.0 mM MgSO4, 4.2 mM NaHCO3, 10 mM HEPES buffered at pH 7.0) and the pH was adjusted to 7.0, if required, using the phenol red indicator dye as a guide. This pH adjustment was necessary, as it is well-established that the response of T84 cells to UGn is highly pH dependent. […]

anesthetized rats = assay: Mean arterial blood pressure during and after iv peptide infusion; type: in vivo, rat
Procedure: Rats were not fasted prior to clearance experiments and ranged in weight from 250-340 g at the time of study. Anesthesia was induced with an intraperitoneal injection of pentobarbital sodium (55 mg/kg BW) and maintained at a surgical plane by intermittent intravenous supplementation. Core temperature was maintained at 37° C. by a servo-controlled, heated operating table. Animals breathed spontaneously through a PE240 cannula inserted into the trachea. A jugular vein was catheterized with PE50 cannula tubing for intravenous infusion of isotonic saline containing FITC-labeled inulin (0.4% W/V, Sigma, St Louis Mo.) and two PE10 cannulae, one for supplemental anesthetic and the other for peptide infusions (described below in the experimental protocol section). The ureters were exposed through a midline ventral incision and cannulated with PE10 tubing about one cm from each kidney. Urine was collected over 20 min periods and the volume estimated by weight. A femoral artery was cannulated with PE50 tubing for continuous measurement of arterial blood pressure and intermittent blood samples (50 μl), taken at the mid point of each urine collection.
Arterial blood pressure was measured with a pressure transducer connected to a cardiovascular analyzer (Model 50110, Stoelting Instruments Wood Dale, Ill.). Left renal blood flow was measured in some rats with a flow probe positioned on the left renal artery and connected to a blood flow monitor (model 1 PRB probe and model T420 monitor, Transonic Systems Inc. Ithaca N.Y.). Arterial pressure, heart rate, and renal blood flow were digitized with an A/D converter (Keithley instruments, Cleveland, Ohio Model KUSB 3100) for display and storage on a Windows-based personal computer using open layers data acquisition software (Dtx_Ez, Data Translation Inc, Marlboro, Mass.). Sodium and potassium concentrations in plasma and urine were measured by flame photometry (Model 943, Instrumentation Laboratory Co., Lexington Mass.). Glomerular filtration rate (GFR) was measured as the renal clearance rate of FITC-labeled inulin
as §1
Group comparisons were made with one way analysis of variance (ANOVA) using peptide doses as column variables. Columns were further divided into pre-infusion, infusion, and post infusion subgroups to facilitate post hoc testing with Bonferroni's method for selected multiple comparisons. Row variables were individual measurements from each clearance period for each rat. Responses were tested for statistical significance by comparing control values during the pre-infusion, infusion and post infusion collection periods with corresponding values obtained from peptide-infused rats. Each experimental group included 5 different doses of huUgnA, huUgnB, or ST-core. Thus, fifteen comparisons were required for each measured variable in each group.

[2] = molecular target: cultured GC-C-expressing cells (Homo sapiens, UniProt P25092); settings: cited from earlier work
Sequence of cultured GC-C-expressing cells (P25092 24-1073): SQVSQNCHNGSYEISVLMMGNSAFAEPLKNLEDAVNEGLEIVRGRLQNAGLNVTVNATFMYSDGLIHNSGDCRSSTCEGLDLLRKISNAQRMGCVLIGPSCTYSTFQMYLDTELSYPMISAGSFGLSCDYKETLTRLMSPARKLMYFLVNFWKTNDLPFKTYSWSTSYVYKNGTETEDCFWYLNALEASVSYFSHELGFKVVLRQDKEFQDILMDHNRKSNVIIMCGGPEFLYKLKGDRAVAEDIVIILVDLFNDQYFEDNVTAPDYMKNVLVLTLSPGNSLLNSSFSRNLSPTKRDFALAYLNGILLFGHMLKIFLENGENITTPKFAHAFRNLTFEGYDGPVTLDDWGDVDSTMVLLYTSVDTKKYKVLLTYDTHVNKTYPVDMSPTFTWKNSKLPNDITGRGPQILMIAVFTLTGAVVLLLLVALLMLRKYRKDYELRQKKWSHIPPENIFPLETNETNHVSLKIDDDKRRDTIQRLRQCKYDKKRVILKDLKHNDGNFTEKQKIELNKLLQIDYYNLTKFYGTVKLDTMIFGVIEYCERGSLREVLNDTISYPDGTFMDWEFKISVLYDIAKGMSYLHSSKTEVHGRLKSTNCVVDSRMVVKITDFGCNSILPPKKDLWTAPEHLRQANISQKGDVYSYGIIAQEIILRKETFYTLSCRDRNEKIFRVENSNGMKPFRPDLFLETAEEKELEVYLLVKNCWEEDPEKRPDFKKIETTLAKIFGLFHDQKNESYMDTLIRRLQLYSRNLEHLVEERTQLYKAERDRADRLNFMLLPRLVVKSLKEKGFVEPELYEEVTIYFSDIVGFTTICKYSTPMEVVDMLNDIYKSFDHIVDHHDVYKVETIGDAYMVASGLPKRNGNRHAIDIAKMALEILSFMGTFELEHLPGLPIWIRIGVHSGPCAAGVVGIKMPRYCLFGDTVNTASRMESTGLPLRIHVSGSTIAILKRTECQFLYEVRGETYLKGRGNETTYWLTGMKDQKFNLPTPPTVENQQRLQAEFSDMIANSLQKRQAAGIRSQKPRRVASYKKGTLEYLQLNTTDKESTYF

Question: For `CC(C)C[C@H](NC(=O)[C@@H]1CSSC[C@@H]2NC(=O)[C@H](CC(C)C)NC(=O)[C@H](CCC(=O)O)NC(=O)[C@@H](NC(=O)[C@H](CC(=O)O)NC(=O)[C@H](CC(=O)O)NC(=O)[C@@H](N)CC(N)=O)CSSC[C@H](NC(=O)[C@H](C)NC(=O)[C@H](C(C)C)NC(=O)[C@H](CC(N)=O)NC(=O)[C@H](C(C)C)NC2=O)C(=O)N[C@@H]([C@@H](C)O)C(=O)NCC(=O)N1)C(=O)O` (single isomer, unassigned) [huUgnA, Asn Asp Asp Cys Glu Leu Cys Val Asn Val Ala Cys Thr Gly Cys Leu, reference compound], which “stability of identity and properties in vivo” value [1] is on record?
Answer: Its value is “sufficiently stable for use in acute animal studies”.

Question: And the “isomerization in vivo, LC-MS of urine at peak peptide excretion” value ([1]; iv infusion, anesthetized rat)?
Answer: The value was “essentially no isomerization had occurred”.

Question: And the “return of urinary GC-C stimulating activity to baseline after infusion was terminated” value ([1]; iv infusion, anesthetized rat)?
Answer: Its value is “within an hour”.

Question: And the “time to appearance of GC-C stimulating activity in urine from start of infusion” value ([1]; iv infusion, anesthetized rat)?
Answer: Its value is no more than 20 min.

Question: What about the “GC-C stimulating activity recovered in urine” value ([1]; iv infusion, anesthetized rat) of the same molecule?
Answer: The value was “a significant amount”.

Question: And the “BP (mean arterial blood pressure)” value (anesthetized rats; huUgnA 12 nmol, Infusion)?
Answer: The value was 110 ± 4 mmHg.

Question: And the “BP (mean arterial blood pressure)” value (anesthetized rats; huUgnA 12 nmol, Post-infuse)?
Answer: The value was 104 ± 3 mmHg.

Question: What about the “BP (mean arterial blood pressure)” value (anesthetized rats; huUgnA 12 nmol, Pre-infuse) of the same molecule?
Answer: The value was 121 ± 4 mmHg.

Question: What about the “BP (mean arterial blood pressure)” value (anesthetized rats; huUgnA 25 nmol, Infusion) of the same molecule?
Answer: Its value is 111 ± 4 mmHg.

Question: And the “BP (mean arterial blood pressure)” value (anesthetized rats; huUgnA 25 nmol, Post-infuse)?
Answer: The value was 105 ± 4 mmHg.

Question: What about the “BP (mean arterial blood pressure)” value (anesthetized rats; huUgnA 25 nmol, Pre-infuse) of the same molecule?
Answer: The value was 119 ± 3 mmHg.

Question: And the “BP (mean arterial blood pressure)” value (anesthetized rats; huUgnA 50 nmol, Infusion)?
Answer: The value was 106 ± 3 mmHg.

Question: And the “BP (mean arterial blood pressure)” value (anesthetized rats; huUgnA 50 nmol, Post-infuse)?
Answer: The value was 101 ± 3 mmHg.

Question: And the “BP (mean arterial blood pressure)” value (anesthetized rats; huUgnA 50 nmol, Pre-infuse)?
Answer: The value was 117 ± 3 mmHg.

Question: What about the “BP (mean arterial blood pressure)” value (anesthetized rats; huUgnA 100 nmol, Infusion) of the same molecule?
Answer: Its value is 115 ± 3 mmHg.

Question: What about the “BP (mean arterial blood pressure)” value (anesthetized rats; huUgnA 100 nmol, Post-infuse) of the same molecule?
Answer: The value was 109 ± 4 mmHg.

Question: What about the “BP (mean arterial blood pressure)” value (anesthetized rats; huUgnA 100 nmol, Pre-infuse) of the same molecule?
Answer: Its value is 121 ± 4 mmHg.

Question: And the “BP (mean arterial blood pressure)” value (anesthetized rats; huUgnA 200 nmol, Infusion)?
Answer: Its value is 113 ± 5 mmHg.

Question: And the “BP (mean arterial blood pressure)” value (anesthetized rats; huUgnA 200 nmol, Post-infuse)?
Answer: The value was 112 ± 4 mmHg.

Question: What about the “BP (mean arterial blood pressure)” value (anesthetized rats; huUgnA 200 nmol, Pre-infuse) of the same molecule?
Answer: Its value is 121 ± 7 mmHg.

Question: And the EC50 ([2]; read-out: EC50, cGMP responses)?
Answer: Its EC50 is roughly 100 nM.

Question: With `CC(C)C[C@H](NC(=O)[C@@H]1CSSC[C@@H]2NC(=O)[C@H](CC(C)C)NC(=O)[C@H](CCC(=O)O)NC(=O)[C@@H](NC(=O)[C@H](CC(=O)O)NC(=O)[C@H](CC(=O)O)NC(=O)[C@@H](N)CC(N)=O)CSSC[C@H](NC(=O)[C@H](C)NC(=O)[C@H](C(C)C)NC(=O)[C@H](CC(N)=O)NC(=O)[C@H](C(C)C)NC2=O)C(=O)N[C@@H]([C@@H](C)O)C(=O)NCC(=O)N1)C(=O)O` (single isomer, unassigned) [huUgnB, Asn Asp Asp Cys Glu Leu Cys Val Asn Val Ala Cys Thr Gly Cys Leu] as the molecule, how does the “stability of identity and properties in vivo” value [1] read?
Answer: Its value is “sufficiently stable for use in acute animal studies”.

Question: What about the “isomerization in vivo, LC-MS of urine at peak peptide excretion” value ([1]; iv infusion, anesthetized rat) of the same molecule?
Answer: The value was “a clearly discernable huUgnB signal along with a barely detectible huUgnA signal”.

Question: What about the “GC-C stimulating activity recovered in urine” value ([1]; iv infusion, anesthetized rat) of the same molecule?
Answer: The value was “very little”.

Question: What about the “BP (mean arterial blood pressure)” value (anesthetized rats; huUgnB 9 nmol, Infusion) of the same molecule?
Answer: The value was 108 ± 6 mmHg.

Question: And the “BP (mean arterial blood pressure)” value (anesthetized rats; huUgnB 9 nmol, Post-infuse)?
Answer: Its value is 107 ± 5 mmHg.

Question: What about the “BP (mean arterial blood pressure)” value (anesthetized rats; huUgnB 9 nmol, Pre-infuse) of the same molecule?
Answer: Its value is 115 ± 5 mmHg.

Question: And the “BP (mean arterial blood pressure)” value (anesthetized rats; huUgnB 18 nmol, Infusion)?
Answer: Its value is 117 ± 3 mmHg.

Question: What about the “BP (mean arterial blood pressure)” value (anesthetized rats; huUgnB 18 nmol, Post-infuse) of the same molecule?
Answer: The value was 113 ± 3 mmHg.

Question: What about the “BP (mean arterial blood pressure)” value (anesthetized rats; huUgnB 18 nmol, Pre-infuse) of the same molecule?
Answer: The value was 124 ± 2 mmHg.

Question: And the “BP (mean arterial blood pressure)” value (anesthetized rats; huUgnB 35 nmol, Infusion)?
Answer: The value was 108 ± 4 mmHg.

Question: What about the “BP (mean arterial blood pressure)” value (anesthetized rats; huUgnB 35 nmol, Post-infuse) of the same molecule?
Answer: Its value is 107 ± 3 mmHg.

Question: And the “BP (mean arterial blood pressure)” value (anesthetized rats; huUgnB 35 nmol, Pre-infuse)?
Answer: Its value is 118 ± 3 mmHg.

Question: And the “BP (mean arterial blood pressure)” value (anesthetized rats; huUgnB 70 nmol, Infusion)?
Answer: The value was 107 ± 5 mmHg.

Question: And the “BP (mean arterial blood pressure)” value (anesthetized rats; huUgnB 70 nmol, Post-infuse)?
Answer: Its value is 107 ± 4 mmHg.

Question: And the “BP (mean arterial blood pressure)” value (anesthetized rats; huUgnB 70 nmol, Pre-infuse)?
Answer: The value was 119 ± 3 mmHg.

Question: What about the “BP (mean arterial blood pressure)” value (anesthetized rats; huUgnB 140 nmol, Infusion) of the same molecule?
Answer: The value was 119 ± 5 mmHg.

Question: And the “BP (mean arterial blood pressure)” value (anesthetized rats; huUgnB 140 nmol, Post-infuse)?
Answer: The value was 117 ± 5 mmHg.

Question: What about the “BP (mean arterial blood pressure)” value (anesthetized rats; huUgnB 140 nmol, Pre-infuse) of the same molecule?
Answer: The value was 123 ± 5 mmHg.

Question: And the “potency, fold less potent than the A isomer” value [2]?
Answer: Its value is “more than 100 fold”.
